One experiment concerns PEO4 cells. Nature of the experiment: γH2AX analysis, PEO4. The experiment is classed as cell-based, human. The conditions noted are these: FEN1i plus cisplatin. As to the method: (§1) Graphical representation and statistical analysis of mean tail moment was performed in GraphPad Prism 6 (GraphPad, La Jolla, USA). All experiments were done in duplicate three times.
(§2) γH2AX FACS: For monitoring DNA double strand break accumulation by γH2AX FACS, 1.05×104 Cells/cm2 were seeded in 6-well plates and left overnight at 37°C in a 5% CO 2 atmosphere. Cisplatin (5µM) or FEN1i (10µM) was later added to cells and incubated for 24h and 48h at 37°C in a 5% CO2 atmosphere. Cells were collected by trypsinization, washed […]
(§3) with ice cold PBS and fixed in 70% ethanol for 1h at -20°C. After removal of the fixative solution by centrifugation, cells were stained with 2 µg/ml of phospho-Histone (γH2AX) Ser139 (16202A, Millipore, UK) to detect DSBs.
(§4) Cell cycle progression: Cells were treated with 20 µg/ml RNase A (12091021, Invitrogen) and then 10 µg/ml Propidium Iodide (P4170, Sigma Aldrich) was added to determine the cell cycle distribution. The samples were analysed on a Beckman-Coulter FC500 flow cytometer using a 488nm laser for excitation and emission data for PI collected using a 620nm bandpass filter (FL3) and a 525nm bandpass filter (FL1) for FITC-anti-phospho-Histone H2A.X. […]
(§5) Graphical representation and statistical analysis was performed in GraphPad Prism 7 (GraphPad, La Jolla, USA). […]

The next experiment concerns ATM-deficient HeLa cells. The experiment is described as follows: FEN1 inhibitor cytotoxicity, ATM-deficient HeLa. The experiment is classed as cell-based. The note with it: vs HeLa control.
Experiment [1] relates to BRCA2_KD HeLa silenciX cells. Nature of the experiment: Clonogenic assay, BRCA2_KD HeLa. The conditions noted are these: vs control HeLa cells. The class given is cell-based. As to the method: (§6) Clonogenic assay: In the clonogenic assay (colony formation assays), 32 cells/cm2 were seeded in 6-well plates and left at 37°C in a 5% CO2 atmosphere. Cisplatin (5µM) and/or FEN1i (10µM) and/or Importazole (5 µM, Selleckem, S8446 ) were added at the indicated concentrations and the plates were left at 37 °C in a 5% CO 2 atmosphere for 14 days. Later, the plates were washed with PBS, fixed and stained with a crystal violet, acetic acid and methanol solution and colonies were counted.
(§7) Nuclear and cytoplasmic extract: Cells were harvest by trypsinization, washed with PBS and centrifuged at 1000×g for 5min. […] Protein level were then quantified prior to use in western blots.
(§8) BCA protein quantification: Protein quantification was done using the Pierce BCA kit assay by Thermo Fisher Scientific. […] The plate was incubated at 37°C during 30 min in the dark and the absorbance was measured by FLUOstar OPTIMA, UK/ Infinite® F50 (UK) microplate reader at 590 nm. […]
(§9) Western Blot Analysis: Cells were harvested and lysed in RIPA buffer (R0278, Sigma) with the addition of protease cocktail inhibitor (P8348, Sigma), phosphatase inhibitor cocktail 2 (P5726, Sigma) and phosphatase inhibitor cocktail 3 (P0044, Sigma) and stored at - 20°C. Protein was quantified using BCA Protein Assay kit (23225, Thermo Fisher). […]

The next experiment concerns PEO1 cells. The experiment is described as follows: γH2AX analysis, PEO1. The class given is cell-based, human. The note with it: FEN1i monotherapy. As to the method: as §1, §2, §3, §4, §5
For experiment [2], the system named is FEN1 nuclear level in A2780cis cells. The experiment is described as follows: Nuclear extract western blot for FEN1, A2780cis. The class given is cell-based, human. The conditions noted are these: 5 µM cisplatin, 24 h. The method, then:
as §6, §7, §8, §9
(Immunoblotting shows a protein as a band on a membrane.)

Molecules are shown by their SMILES.

As for `Cc1csc2c1c(=O)n(O)c(=O)n2-c1ccccc1` [PTPD, 3-hydroxy-5-methyl-1-phenylthieno [2,3 d]pyrimidine-2,4(1H,3H)-dione], the γH2AX nuclear foci result in the experiment on PEO4 cells is “increased nuclear γH2AX nuclear foci accumulation”. In addition, the “sensitivity to FEN1 inhibitor” value was “did not observe increased sensitivity” with ATM-deficient HeLa cells and “sensitive to FEN1i compared to control HeLa cells” in experiment [1]. Also, the γH2AX foci entry in the experiment with PEO1 cells is recorded as “increased γH2AX foci accumulation”.

In the case of `N.N.[Cl][Pt][Cl]` [cisplatin], the “nuclear level of FEN1 after cisplatin” value in experiment [2] is “significantly increased”.

(Values after publication PMC8070745, “FEN1 Blockade for Platinum Chemo-Sensitization and Synthetic Lethality in Epithelial Ovarian Cancers” (Cancers, 2021).)
